From patent publication US20260259229A1, “FATIGUE SYNDROME SIGNATURES AND METHODS OF TREATMENT” (The Board of Trustees of the Leland Stanford Junior …, priority 2023, published 2026)
Entries after “also recorded” stand apart in the source; their conditions may differ.

Assays:
[1] = tested on: CD4 and CD8 T cells (donor PBMCs); experiment: T cell proliferation assay: CellTrace Violet dye dilution, PBMCs stimulated with anti-CD3/anti-CD28 antibodies and IL-2, treated with ROS-modulating drugs; assay type: cell-based, human; settings: for proportion of proliferating T cells, HC and ME-CFS PBMCs (FIG. 15): 100 μM N-acetylcysteine, liproxstatin-1, 5-days post activation; for effect in lowering T cell proliferation in LC female donors: female LC PBMCs (FIG. 16); for effect in reducing T cell hyperproliferation in ME/CFS donors: female ME/CFS donors, p: NAC CD4 0.82, CD8 0.7, metformin CD4 0.041, CD8 0.39, liproxstatin-1 CD4 0.31, CD8 0.18; for reduction in T cell proliferation upon treatment, male ME/CFS: male ME/CFS PBMCs (FIG. 17: 100 μM N-acetylcysteine, 10 μM metformin, 1 μM liproxstatin-1); for proportion of proliferating CD4 T cells upon stimulation: patient 27 (ME/CFS) PBMCs treated at day 0, read 5 days after stimulation, untreated 79.3%
[2] = tested on: CD4 T cells; experiment: Screening for reversal of oxidative damage: PBMCs treated with ROS inducer, then candidate drug; lipid peroxidation by flow cytometry (FIG. 9B, 9F); assay type: cell-based, human; settings: drug after ROS inducer, versus positive control cells treated only with ROS inducer (FIG. 9F)
Method: FIGS. 9A-9F. Screening assays. (A) To identify drugs that can protect immune cell populations from oxidative stress, PBMCs are treated with candidate drugs (e.g., liproxstatin-1, metformin) for an hour, before treatment with ROS inducer (e.g., cumene […], tert-butyl hydroperoxide). By subsequently labeling cells with metabolic dyes to track oxidative stress parameters, comparisons with immune cells only treated with ROS inducer enable quantification of drugs capacity to protect against oxidative stress and damage in immune cell populations. (B) To identify drugs that can reverse oxidative stress and damage in immune cell populations, PBMCs are treated first with a ROS inducer for 30 minutes to an hour, before subsequent treatment with candidate drugs. By labeling with metabolic dyes and comparing the drug treated immune cell populations to those treated only with ROS inducer, we can quantify the capacity for drugs to reverse oxidative stress and damage in PBMCs. (C) To link these metabolic changes with immune cell function, control and disease PBMCs (e.g., from fatigue-syndrome patients) are labeled with proliferation dyes, upon which T cells are stimulated with anti-CD3/anti-CD28 antibodies and IL-2. By treating PBMCs with drugs identified from methodologies described in 9A and 9B, we can assess how metabolic changes to oxidative stress levels in drugs also modulate functional capacity of donor T cells to proliferate. While flowchart is specific to T cells (e.g., anti-CD3/anti-CD28 stimulation), the core methodology is applicable to other immune cell populations, where changes in immune cells capacity to proliferate can be assessed upon treatment with candidate drugs. (D) Application of methodology to a specific CFS patient is shown, where PBMCs treated with ROS-modulating drugs including N-acetylcysteine, metformin, and liproxstatin-1. Flow cytometry data is shown for CD4 T cells, where the x-axis corresponds to CellTraceViolet (proliferation dye) staining and the y-axis corresponds to total ROS levels. […] (E) Proportion of proliferating T cells are shown for a specific CFS patient (patient 27) along with their […] and […]. […] Lipid peroxidation changes are shown, where higher oxidative damage corresponds to a lower value on the y-axis. Identified drugs include N-acetylcysteine (NAC), metformin, liproxstatin-1, nicotinamide mononucleotide (NMN), oxaloacetate, MitoQ, Abilify, Colchicine, Naltrexone. Although this methodology is shown for CD4 T cells, it is broadly applicable to other immune cell populations (e.g., myeloid cells).
Staining: To stain for mitochondrial parameters, cells were stained with BioTracker ATP-Red Live Cell Dye (Sigma Aldrich), MitoTracker Deep Red FM (ThermoFisher), MitoSpy Green FM (BioLegend). To stain for ROS levels, cells were stained with DCFDA cellular ROS assay kit (abcam), MitoSOX Red Mitochondrial Superoxide detector (ThermoFisher). To stain for glutathione clearance and oxidative damage, cells were stained with ThiolTracker Violet (ThermoFisher), HCS LipidTOX Green Neutral Lipid Stain (ThermoFisher) for lipid droplet levels, and Image-iT™ Lipid Peroxidation Kit, ratiometric lipid peroxidation sensor (ThermoFisher). To capture viability, cells were stained with LIVE/DEAD Fixable Far Red Dead Cell Stain (ThermoFisher).

[3] = tested on: patients; settings: double-blinded phase III studies on >1300 patients, especially among female patients; cited from earlier work

SMILES	effect in reducing T cell hyperproliferation in ME/CFS donors ([1]; 5 days post stimulation)	reduction in T cell proliferation upon treatment, male ME/CFS [1]	proportion of proliferating CD4 T cells upon stimulation [1] [%]	capacity for reversing oxidative damage (lipid peroxidation changes) [2]	also measured
Clc1cccc(CN=C2Nc3ccccc3NC23CCNCC3)c1 [liproxstatin-1]	did not show a statistically significant effect	did not observe any reduction	64.5	reversing oxidative damage	proportion of proliferating T cells, HC and ME-CFS PBMCs (FIG. 15) [1]: selectively lowers proliferation in ME-CFS and not the HC donors; effect in lowering T cell proliferation in LC female donors ([1]; 5 days post stimulation): did not show a statistically significant effect
CN(C)C(=N)N=C(N)N [metformin]	statistically significant effect in reducing CD4 T cell hyperproliferation; also recorded: statistically significant reduction	did not observe any reduction	53.2	reversing oxidative damage	effect on T cell proliferation in healthy controls ([1]; HC donors, 5 days post stimulation, metformin CD4 p=1, CD8 p=0.69): no effect; also recorded: does not alter proliferation; average reduction of CD4 T cell proliferation ([1]; LC donor PBMCs, metformin treatment (10 μM, FIG. 16B), p=0.31): 5.2%; average reduction of CD8 T cell proliferation ([1]; LC donor PBMCs, metformin treatment (10 μM, FIG. 16B), p=0.42): 7.6%; effect in lowering T cell proliferation in LC female donors ([1]; 5 days post stimulation): smaller and non-statistically significant effect; reduction of Long COVID incidence [3]: 41%
O=C1CCc2ccc(OCCCCN3CCN(c4cccc(Cl)c4Cl)CC3)cc2N1 [Abilify]	–	–	–	reversing oxidative damage	–
CC(=O)N[C@@H](CS)C(=O)O [NAC, N-acetylcysteine]	did not have any effect	did not observe any reduction	54.3	reversing oxidative damage	proportion of proliferating T cells, HC and ME-CFS PBMCs (FIG. 15) [1]: no difference or decrease
COc1cc2c(c(OC)c1OC)-c1ccc(OC)c(=O)cc1[C@@H](NC(C)=O)CC2 [Colchicine]	–	–	–	reversing oxidative damage	–
COC1=C(OC)C(=O)C(CCCCCCCCCC[P+](c2ccccc2)(c2ccccc2)c2ccccc2)=C(C)C1=O [MitoQ]	–	–	–	reversing oxidative damage	–
O=C1CC[C@@]2(O)[C@H]3Cc4ccc(O)c5c4[C@@]2(CCN3CC2CC2)[C@H]1O5 [Naltrexone]	–	–	–	reversing oxidative damage	–
NC(=O)c1ccc[n+]([C@@H]2O[C@H](COP(=O)([O-])O)[C@@H](O)[C@H]2O)c1 [nicotinamide mononucleotide]	–	–	–	reversing oxidative damage	–
